In patent US20260191858A1, “COMBINATION THERAPIES” (Kallyope, Inc., priority 2022, published 2026) one finds EC50 and post-prandial glucose excursion data, which are given here for five compounds.

One may read the EC50 as the concentration giving half of the maximal effect.

The structures appear in SMILES notation.

One experiment addresses T1, human GPR40 (Homo sapiens, UniProt O14842).
T1 construct: host or cells: CHO-K1
Briefly: Inositol phosphate accumulation assay in CHO-K1 cells expressing human GPR40. The conditions noted are these: CHO-K1 human GPR40, IP1 HTRF, 90 min. The experiment is classed as cell-based. As to the method: CHO-K1 cells expressing human GPR40 were purchased from DiscoverX (95-1005C2). HEK293 cells expressing mouse FFAR1 were prepared using a mouse FFAR1 carrying plasmid purchased from OriGene Technologies (MR222997). The cells were transfected using Lipofectamine 2000 using manufacturer instructions and stable cell line was established from a single cell using geneticine selection. Assay ready frozen (ARF) cells were prepared and used throughout the study.
The assay was performed in a 384-well plate format using IP1 assay kit from Cis-Bio. ARF cells expressing FFAR1 (mouse and human) were thawed, washed and then plated in the appropriate medium (F12 based medium for CHO hFFAR1 and DMEM based medium for HEK293 mFFAR1—both were supplemented with 10% FBS and penicillin/streptomycin). 20 μL of 3.5×10^5 cells/mL were plated on a Poly D-Lysine coated 384-well white plate. The cells were then incubated for 16 hr at 37° C./5% CO2. After 16 hr the medium was removed and 15 μL of stimulation buffer containing the test compounds was added to the cells. The plates were then incubated for 90 min at 37° C./5% CO2. 5 μL of detection buffer (prepared as described in the IP-one kit) was added to each well and the plates were incubated at RT for 1 hr.
[…] was measured using ClarioSTAR plate reader, calculating the ratio between emissions at 665 nm and 620 nm (HTRF ratio). HTRF ratio for positive (Max) and negative (Min) controls were used to normalize HTRF data and generate values for % activity. EC50 and Max activity values were determined using a standard 4-parameter fit.

The next experiment has as its system male C57BL/6J mice. Description: Glucose excursion during oral glucose tolerance test in mice. The format is in vivo. Particulars: OGTT in mice. As to the method: The effects of GPR40 agonists of Formula (B) and a GPR119 agonist of Formula (A) alone and in combination on glucose excursion during an oral glucose tolerance test were assessed in mice. The effects of the combination of a compound of Formula (A) and compounds of Formula (B) with linagliptin (a DPP-4 inhibitor) or metformin were also assessed. Male C57BL/6J mice, approximately 10 weeks old, were acclimated to the facility and the oral dosing procedure. Mice were randomized into balanced treatment groups using body weight. Baseline glucose was assessed immediately before compound administration. […] Blood was assessed for glucose levels 20 min, 40 min, 60 min, and 120 min post D-(+)-glucose administration. The AUCs for blood glucose measures were calculated for each treatment from 0 to 120 min. Statistical analysis was performed on AUCs using one-way ANOVA versus vehicle, with Tukey's post-test.

T1 sequence (O14842 whole entry): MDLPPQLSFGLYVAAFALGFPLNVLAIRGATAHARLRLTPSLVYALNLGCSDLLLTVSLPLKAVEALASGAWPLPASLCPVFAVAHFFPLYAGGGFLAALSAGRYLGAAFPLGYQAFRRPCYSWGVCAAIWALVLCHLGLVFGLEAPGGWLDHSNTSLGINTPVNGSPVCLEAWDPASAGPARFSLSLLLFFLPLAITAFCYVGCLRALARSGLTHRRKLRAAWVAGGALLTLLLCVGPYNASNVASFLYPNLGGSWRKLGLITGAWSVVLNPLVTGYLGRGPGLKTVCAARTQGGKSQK

As to `COc1ccc(CCCC(C)(C)C)c(N2CCC(COc3cccc([C@@H](CP(C)(=O)O)C4CC4)c3)CC2)c1` [Compound B6, ((S)-2-cyclopropyl-2-(3-((1-(2-(4,4-dimethylpentyl)-5-methoxyphenyl)piperidin-4-yl)methoxy)phenyl)ethyl)(methyl)phosphinic acid], the EC50 on human GPR40 was at most 50 nM.
Still for that read-out and setting: in the case of `COc1ccc(F)c([C@H]2CC[C@H](COc3cc([C@@H](CP(C)(=O)O)C4CC4)ccn3)CC2)c1` [Compound B5, ((S)-2-cyclopropyl-2-(2-(((trans)-4-(2-fluoro-5-methoxyphenyl)cyclohexyl)methoxy)pyridin-4-yl)ethyl)(methyl)phosphinic acid] it was at most 50 nM.
Consider `CN(C)C(=N)N=C(N)N` [metformin], for which, in the experiment on male C57BL/6J mice, the post-prandial glucose excursion entry is on record as “suppressed post-prandial glucose excursion”.
Regarding `COc1ccc(CCCC(C)(C)C)c(N2CCC(COc3cccc([C@H](C)CP(C)(=O)O)c3)CC2)c1` [Compound B10, ((S)-2-(3-((1-(2-(4,4-dimethylpentyl)-5-methoxyphenyl)piperidin-4-yl)methoxy)phenyl)propyl)(methyl) phosphinic acid], on human GPR40, the EC50 is at most 50 nM.
Consider `COc1ccc(CCCC(C)(C)C)c(N2CCC(COc3cc([C@@H](CP(C)(=O)O)C4CC4)ccn3)CC2)c1` [Compound B7, ((S)-2-cyclopropyl-2-(2-((1-(2-(4,4-dimethylpentyl)-5-methoxyphenyl)piperidin-4-yl)methoxy)pyridin-4-yl)ethyl)(methyl)phosphinic acid], for which the EC50 on human GPR40 is at most 50 nM.
